{"source": "PubChem BioAssay AID1845212", "about": "(Molecular Pharmacology Branch, DTP, NCI, 2023)", "system": "NCI-H719 tumor spheroids, viability", "test": "Anticancer human tumor NCI-H719 cell line growth inhibition;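 on all read-outs here: spheroids exposed to compounds for seven days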;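 on viability, T/C: percent viability relative to DMSO vehicle control as 100%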", "conditions": "spheroids with HUVEC and MSC; for viability, T/C: stronger effect = lower value", "in_short": "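Single agents and combinations were tested on spheroids built from tumor cells plus HUVEC and hMSC, at half-log dilutions starting at or near clinical Cmax, else 10 microM; final DMSO 0.25% (v/v).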", "key": {"[1]": {"conditions": "curve of first compound, second compound 0.003 µM"}}, "note": "Where “and” joins values, the source holds several entries; their conditions need not be identical. Equal values may be shown once."}
{"smiles": "Cn1ncnc1[C@H]1c2n[nH]c(=O)c3cc(F)cc(c23)N[C@@H]1c1ccc(F)cc1", "note": "+ COc1cc2c(cc1O)CCNC21CSC2c3c(OC(C)=O)c(C)c4c(c3C(COC1=O)N1C(O)C3Cc5cc(C)c(OC)c(O)c5C(C21)N3C)OCO4", "values": [{"measurement": "IC50", "setting": "curve of first compound, second compound 30 pM", "value": "< 9.49", "unit": "nM"}, {"measurement": "IC50", "setting": "curve of first compound, second compound 94.9 pM", "value": "< 9.49", "unit": "nM"}, {"measurement": "IC50", "setting": "curve of first compound, second compound 0.0003 µM", "value": "< 9.49", "unit": "nM"}, {"measurement": "IC50", "setting": "curve of first compound, second compound 0.000949 µM", "value": "< 9.49", "unit": "nM"}, {"measurement": "IC50", "setting": "[1]", "value": "< 9.49", "unit": "nM"}, {"measurement": "viability, T/C", "setting": "second compound 30 pM, first compound 0.00949 µM", "value": 13.1, "unit": "%"}, {"measurement": "viability, T/C", "setting": "second compound 30 pM, first compound 0.03 µM", "value": 10.3, "unit": "%"}, {"measurement": "viability, T/C", "setting": "second compound 30 pM, first compound 0.0949 µM", "value": 8.87, "unit": "%"}, {"measurement": "viability, T/C", "setting": "second compound 30 pM, first compound 0.3 µM", "value": 10.9, "unit": "%"}, {"measurement": "viability, T/C", "setting": "second compound 30 pM, first compound 0.949 µM", "value": 8.74, "unit": "%"}, {"measurement": "viability, T/C", "setting": "second compound 30 pM, first compound 3 µM", "value": 6.49, "unit": "%"}, {"measurement": "viability, T/C", "setting": "second compound 94.9 pM, first compound 0.00949 µM", "value": 8.85, "unit": "%"}, {"measurement": "viability, T/C", "setting": "second compound 94.9 pM, first compound 0.03 µM", "value": 7.16, "unit": "%"}, {"measurement": "viability, T/C", "setting": "second compound 94.9 pM, first compound 0.0949 µM", "value": 8.84, "unit": "%"}, {"measurement": "viability, T/C", "setting": "second compound 94.9 pM, first compound 0.3 µM", "value": 7.47, "unit": "%"}, {"measurement": "viability, T/C", "setting": "second compound 94.9 pM, first compound 0.949 µM", "value": 7.26, "unit": "%"}, {"measurement": "viability, T/C", "setting": "second compound 94.9 pM, first compound 3 µM", "value": 7.49, "unit": "%"}, {"measurement": "viability, T/C", "setting": "second compound 0.0003 µM, first compound 0.00949 µM", "value": 9.25, "unit": "%"}, {"measurement": "viability, T/C", "setting": "second compound 0.0003 µM, first compound 0.03 µM", "value": 8.07, "unit": "%"}, {"measurement": "viability, T/C", "setting": "second compound 0.0003 µM, first compound 0.0949 µM", "value": 9.38, "unit": "%"}, {"measurement": "viability, T/C", "setting": "second compound 0.0003 µM, first compound 0.3 µM", "value": 10.2, "unit": "%"}, {"measurement": "viability, T/C", "setting": "second compound 0.0003 µM, first compound 0.949 µM", "value": 7.28, "unit": "%"}, {"measurement": "viability, T/C", "setting": "second compound 0.0003 µM, first compound 3 µM", "value": 7.06, "unit": "%"}, {"measurement": "viability, T/C", "setting": "second compound 0.000949 µM, first compound 0.00949 µM", "value": 7.36, "unit": "%"}, {"measurement": "viability, T/C", "setting": "second compound 0.000949 µM, first compound 0.03 µM", "value": 7.49, "unit": "%"}, {"measurement": "viability, T/C", "setting": "second compound 0.000949 µM, first compound 0.0949 µM", "value": 7.37, "unit": "%"}, {"measurement": "viability, T/C", "setting": "second compound 0.000949 µM, first compound 0.3 µM", "value": 6.85, "unit": "%"}, {"measurement": "viability, T/C", "setting": "second compound 0.000949 µM, first compound 0.949 µM", "value": 5.96, "unit": "%"}, {"measurement": "viability, T/C", "setting": "second compound 0.000949 µM, first compound 3 µM", "value": 4.33, "unit": "%"}, {"measurement": "viability, T/C", "setting": "second compound 0.003 µM, first compound 0.00949 µM", "value": 0.57, "unit": "%"}, {"measurement": "viability, T/C", "setting": "second compound 0.003 µM, first compound 0.03 µM", "value": 0.36, "unit": "%"}, {"measurement": "viability, T/C", "setting": "second compound 0.003 µM, first compound 0.0949 µM", "value": 0.96, "unit": "%"}, {"measurement": "viability, T/C", "setting": "second compound 0.003 µM, first compound 0.3 µM", "value": 0.6, "unit": "%"}, {"measurement": "viability, T/C", "setting": "second compound 0.003 µM, first compound 0.949 µM", "value": 0.86, "unit": "%"}, {"measurement": "viability, T/C", "setting": "second compound 0.003 µM, first compound 3 µM", "value": 0.88, "unit": "%"}]}
{"smiles": "CC[C@@]1(O)C(=O)OCc2c1cc1n(c2=O)Cc2cc3c(CN(C)C)c(O)ccc3nc2-1", "values": [{"measurement": "viability, T/C", "setting": "compound 0.003 µM", "value": "44.5% [middle of 10 runs]"}, {"measurement": "viability, T/C", "setting": "compound 0.00949 µM", "value": "6.14% [middle of 10 runs]"}, {"measurement": "viability, T/C", "setting": "compound 0.03 µM", "value": "5.56% [middle of 10 runs]"}, {"measurement": "viability, T/C", "setting": "compound 0.0949 µM", "value": "6.96% [middle of 10 runs]"}, {"measurement": "viability, T/C", "setting": "compound 0.3 µM", "value": "7.47% [middle of 10 runs]"}, {"measurement": "IC50", "setting": "compound alone, run of 11/07/2019", "value": "< 3 nM and 3.17 nM"}, {"measurement": "IC50", "setting": "compound alone, run of 12/16/2019", "value": "3.67 nM and 3.31 nM and < 3 nM"}]}
{"smiles": "CC(C)n1c(=O)n(C)c2cnc3cc(F)c(-c4ccc(OCCCN5CCCCC5)nc4)cc3c21", "note": "+ CC[C@@]1(O)C(=O)OCc2c1cc1n(c2=O)Cc2cc3c(CN(C)C)c(O)ccc3nc2-1", "values": [{"measurement": "IC50", "setting": "[1]", "value": "< 31.6", "unit": "nM"}, {"measurement": "IC50", "setting": "curve of first compound, second compound 0.00949 µM", "value": "< 31.6", "unit": "nM"}, {"measurement": "IC50", "setting": "curve of first compound, second compound 0.03 µM", "value": "< 31.6", "unit": "nM"}, {"measurement": "IC50", "setting": "curve of first compound, second compound 0.0949 µM", "value": "< 31.6", "unit": "nM"}, {"measurement": "IC50", "setting": "curve of first compound, second compound 0.3 µM", "value": "< 31.6", "unit": "nM"}, {"measurement": "viability, T/C", "setting": "second compound 0.003 µM, first compound 0.0316 µM", "value": 33.1, "unit": "%"}, {"measurement": "viability, T/C", "setting": "second compound 0.003 µM, first compound 0.1 µM", "value": 48.3, "unit": "%"}, {"measurement": "viability, T/C", "setting": "second compound 0.003 µM, first compound 0.316 µM", "value": 61.5, "unit": "%"}, {"measurement": "viability, T/C", "setting": "second compound 0.003 µM, first compound 1 µM", "value": 63.7, "unit": "%"}, {"measurement": "viability, T/C", "setting": "second compound 0.003 µM, first compound 3.16 µM", "value": 67.9, "unit": "%"}, {"measurement": "viability, T/C", "setting": "second compound 0.003 µM, first compound 10 µM", "value": 50.5, "unit": "%"}, {"measurement": "viability, T/C", "setting": "second compound 0.00949 µM, first compound 0.0316 µM", "value": 8.54, "unit": "%"}, {"measurement": "viability, T/C", "setting": "second compound 0.00949 µM, first compound 0.1 µM", "value": 8.8, "unit": "%"}, {"measurement": "viability, T/C", "setting": "second compound 0.00949 µM, first compound 0.316 µM", "value": 7.39, "unit": "%"}, {"measurement": "viability, T/C", "setting": "second compound 0.00949 µM, first compound 1 µM", "value": 6.31, "unit": "%"}, {"measurement": "viability, T/C", "setting": "second compound 0.00949 µM, first compound 3.16 µM", "value": 16.9, "unit": "%"}, {"measurement": "viability, T/C", "setting": "second compound 0.00949 µM, first compound 10 µM", "value": 12.7, "unit": "%"}, {"measurement": "viability, T/C", "setting": "second compound 0.03 µM, first compound 0.0316 µM", "value": 7.27, "unit": "%"}, {"measurement": "viability, T/C", "setting": "second compound 0.03 µM, first compound 0.1 µM", "value": 6.04, "unit": "%"}, {"measurement": "viability, T/C", "setting": "second compound 0.03 µM, first compound 0.316 µM", "value": 7.74, "unit": "%"}, {"measurement": "viability, T/C", "setting": "second compound 0.03 µM, first compound 1 µM", "value": 6.96, "unit": "%"}, {"measurement": "viability, T/C", "setting": "second compound 0.03 µM, first compound 3.16 µM", "value": 8.35, "unit": "%"}, {"measurement": "viability, T/C", "setting": "second compound 0.03 µM, first compound 10 µM", "value": 6.27, "unit": "%"}, {"measurement": "viability, T/C", "setting": "second compound 0.0949 µM, first compound 0.0316 µM", "value": 7.12, "unit": "%"}, {"measurement": "viability, T/C", "setting": "second compound 0.0949 µM, first compound 0.1 µM", "value": 6.79, "unit": "%"}, {"measurement": "viability, T/C", "setting": "second compound 0.0949 µM, first compound 0.316 µM", "value": 7.51, "unit": "%"}, {"measurement": "viability, T/C", "setting": "second compound 0.0949 µM, first compound 1 µM", "value": 7.66, "unit": "%"}, {"measurement": "viability, T/C", "setting": "second compound 0.0949 µM, first compound 3.16 µM", "value": 7.78, "unit": "%"}, {"measurement": "viability, T/C", "setting": "second compound 0.0949 µM, first compound 10 µM", "value": 6.17, "unit": "%"}, {"measurement": "viability, T/C", "setting": "second compound 0.3 µM, first compound 0.0316 µM", "value": 8.38, "unit": "%"}, {"measurement": "viability, T/C", "setting": "second compound 0.3 µM, first compound 0.1 µM", "value": 7.86, "unit": "%"}, {"measurement": "viability, T/C", "setting": "second compound 0.3 µM, first compound 0.316 µM", "value": 8.29, "unit": "%"}, {"measurement": "viability, T/C", "setting": "second compound 0.3 µM, first compound 1 µM", "value": 8.95, "unit": "%"}, {"measurement": "viability, T/C", "setting": "second compound 0.3 µM, first compound 3.16 µM", "value": 8.79, "unit": "%"}, {"measurement": "viability, T/C", "setting": "second compound 0.3 µM, first compound 10 µM", "value": 5.92, "unit": "%"}]}
{"smiles": "COc1ccc([C@@H](O)c2cc(-c3ncnc4cc(N5CCOCC5)ccc34)c(F)cc2Cl)nn1", "values": [{"measurement": "viability, T/C", "setting": "compound 0.0316 µM", "value": "103% and 90.6% and 75%"}, {"measurement": "viability, T/C", "setting": "compound 0.1 µM", "value": "109% and 83.6% and 83.3%"}, {"measurement": "viability, T/C", "setting": "compound 0.316 µM", "value": "79.3% and 76.5% and 84.2%"}, {"measurement": "viability, T/C", "setting": "compound 1 µM", "value": "65.6% and 58.1% and 69%"}, {"measurement": "viability, T/C", "setting": "compound 3.16 µM", "value": "47.3% and 57.3% and 87.8%"}, {"measurement": "viability, T/C", "setting": "compound 10 µM", "value": "15.5% and 53.7% and 58.8%"}, {"measurement": "IC50", "setting": "curve of compound", "value": "2360 nM and > 10000 nM"}]}
